The source of these data is ChEMBL document CHEMBL5625209, “Rational design and optimization of acylthioureas as novel potent influenza virus non-nucleoside polymerase inhibitors” (Eur J Med Chem, 2023).

The test system of the test is Influenza A virus. The experiment in a line: Antiviral activity against Influenza A virus H1N1 (A/Puerto Rico/8/34) harboring H274Y mutant infected in MDCK cells. It counts as functional, organism-based.
In turn, `CC(C)(C)c1ccc(C(=O)NC(=S)Nc2ccc(NC(=O)c3ccccc3)cc2)cc1` gave an EC50 of 600 nM. To `CC(C)(C)c1ccc(C(=O)NC(=S)Nc2ccc(NC(=O)c3ccc(Cl)cc3)cc2)cc1` belongs 400 nM. To `CC(C)(C)c1ccc(C(=O)NC(=S)Nc2ccc(NC(=O)c3ccc(C(C)(C)C)cc3)cc2)cc1` belongs 20 nM; to `CCC(=O)Nc1ccc(NC(=S)NC(=O)c2ccc(C(C)(C)C)cc2)cc1`, 5400 nM. To `CC(C)(C)c1ccc(C(=O)NC(=S)Nc2ccc(O)cc2)cc1` belongs 9400 nM.
